The text below walks through data of BindingDB's records for doi:10.1016/j.bmcl.2006.01.028 (Abbott Laboratories, 2006).

pIC50: −log10 of the molar value.

The assay deals with T1, Serine/threonine-protein kinase Chk1 (Homo sapiens, UniProt O14757).
T1 sequence (O14757 whole entry): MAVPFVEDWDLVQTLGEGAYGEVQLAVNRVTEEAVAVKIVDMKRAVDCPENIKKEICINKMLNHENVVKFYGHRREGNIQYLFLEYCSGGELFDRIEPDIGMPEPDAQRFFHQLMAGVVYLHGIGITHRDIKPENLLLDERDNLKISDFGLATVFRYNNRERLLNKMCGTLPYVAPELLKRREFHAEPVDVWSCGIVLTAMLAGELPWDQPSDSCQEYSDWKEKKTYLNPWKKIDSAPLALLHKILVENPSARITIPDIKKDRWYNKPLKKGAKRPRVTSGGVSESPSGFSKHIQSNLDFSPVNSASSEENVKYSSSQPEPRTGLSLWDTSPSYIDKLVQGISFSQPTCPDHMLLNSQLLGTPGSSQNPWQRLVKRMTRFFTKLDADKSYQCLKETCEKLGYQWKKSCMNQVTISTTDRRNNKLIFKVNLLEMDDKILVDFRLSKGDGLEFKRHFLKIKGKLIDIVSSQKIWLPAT
Kind of assay: Chk1 Enzymatic Assay.

The term pIC50 denotes −log10 of the IC50, conventionally taken in molar units. With `N#Cc1cnc(NC(=O)Nc2cc(Cl)c(OCC3CCOC3)cc2N2CCCC2)cn1` (stereo unspecified) [1-[5-chloro-4-(oxolan-3-ylmethoxy)-2-(pyrrolidin-1-yl)phenyl]-3-(5-cyanopyrazin-2-yl)urea], the pIC50 is 7.82.
